# Results taken from patent US20080187512A1, “Treatment for spinal muscular atrophy” (Academia Sinica, priority 2007, published 2008).
# Where two headings read alike, the source gives them in different places.
# What was measured:
# Jak2 (pY1007/pY1008) = assay: Signaling pathway screen in SMN2-NSC34 cells; format: cell-based, mouse; as to Jak2 (pY1007/pY1008) cellular response: key: −: decreasing; +/−: no activation; +: slight activation; ++: minor activation; +++: significant activation
# Experimental: (§1) Western blot analysis. Cells treated by dsRNA, compounds or Stat5A1*6 transfected were detached by scraping, pelletting and rinsing in PBS. Cell pellets were collected after centrifugation and lysed on ice in modified RIPA buffer (50 mM Tris-HCl (pH7.4), 1% NP-40, 0.25% deoxycholic acid, 0.15M NaCl, 1 mM EDTA, 1 mM PMSF/NaF/sodium orthovanadate, and protease inhibitors cocktail (Roche, Mannheim, Germany) for 30 min. After centrifugation, the supernatants were collected and kept frozen at −20° C. Protein concentrations were determined by Bio-Rad protein assay method. For Western blot analysis, protein samples were boiled for 5 min and electrophoresed on 8% or 10% SDS-polyacrylamide gel in a 1× running buffer (25 mM Tris, 192 mM glycine, 3.4 mM SDS, pH 8.3) and subsequently electrotransferred to Polyvinylidene Fluoride tansfer membrane (Pall, Pensacola, Fla.) using a TE 22 mini-tank transfer unit (Amersham Biosciences, San Francisco, Calif.) at 35 volts overnight in transfer buffer (25 mM Tris, 192 mM glycine, 20% methanol, pH8.3). The blotting membranes were incubated in blocking solution (PBS, 5% non-fat milk, 0.2% Tween-20) for 1 hour at room temperature, and then incubated in the same solution with the primary antibody (human-specific SMN/1:1000; SMN/1:5000, Transduction Laboratories, Lexington, Ky.; phospho-Stat5a/b/1:1000, Cell signaling, Beverly, Mass.; phospho-Jak2/1:1000, Upstate, Lake Placid, N.Y.; Flag BioM2/1:1000, Sigma, St. Louis, MO; c-myc/1:200, Santa Cruz Biotech, Santa Cruz, Calif.; α-Tubilin/1:10000, Upstate, Lake Placid, N.Y., MO), overnight at 4° C. The membranes were washed and incubated in the blocking solution with the proper HRP-conjugated secondary antibody at 1/5000 dilution (Chemicon, Temecula, Calif.) for 1 hour at room temperature. After washing three times in PBS containing 0.1% Tween-20, the signals were visualized by autoradiography (Fuji Medical X-ray film, Fuji Photos, Tokyo) using enhanced chemi-luminescence (ECL detection system; Perkin-Elmer, Boston, Calif.). Western blot quantification was performed by scanning the auto-radiographs with a computerized densitometer. Signal intensities were determined by densitometry analysis (Fuji film LAS-1000 plus pictography) using the program Phoreticx 1D (Phoreticx International).
# (§2) Therefore, TSA, aclarubicin and sodium vanadate all induce the activation of Stat5A in motor neuron-like NSC34 cells.
# Stat5 (pT694) = assay: Signaling pathway screen in SMN2-NSC34 cells; format: cell-based, mouse; set-up: Stat5 (pT694) cellular response: key: −: decreasing; +/−: no activation; +: slight activation; ++: minor activation; +++: significant activation
# Experimental: as §1, §2
# Stat3 (pY705) = assay: Signaling pathway screen in SMN2-NSC34 cells; format: cell-based, mouse
# Stat1 (pY701) = assay: Signaling pathway screen in SMN2-NSC34 cells; format: cell-based, mouse
# ERK1/2 (pT202/pY204) = assay: Signaling pathway screen in SMN2-NSC34 cells; format: cell-based, mouse
# SMN2 = SMN2 splicing pattern, semi-quantitative RT-PCR in SMA-like MEFs; format: cell-based, mouse; set-up: key to SMN2 splicing pattern MEF: −: no effect; +: effective; +++: most effective
# Crk = conditions: SMN2-NSC34 cells
# Experimental: as §1
# MKP2 = conditions: SMN2-NSC34 cells
# Experimental: as §1
# GRB2 = conditions: SMN2-NSC34 cells
# Experimental: as §1
# Jak1 (pY1022/pY1023) = conditions: SMN2-NSC34 cells
# Experimental: as §1
# PTP1C/SHP1 = conditions: SMN2-NSC34 cells
# Experimental: as §1
# SHC = conditions: SMN2-NSC34 cells
# Experimental: as §1
# NCK = conditions: SMN2-NSC34 cells
# Experimental: as §1
# PTP1B = conditions: SMN2-NSC34 cells
# Experimental: as §1
# GRB14 = conditions: SMN2-NSC34 cells
# Experimental: as §1
# KAP = conditions: SMN2-NSC34 cells
# Experimental: as §1
# PI3-Kinase = conditions: SMN2-NSC34 cells
# Experimental: as §1
# RPTPβ = conditions: SMN2-NSC34 cells
# Experimental: as §1
# LAR = conditions: SMN2-NSC34 cells
# Experimental: as §1
# RPTPα = conditions: SMN2-NSC34 cells
# Experimental: as §1
# ShcC = conditions: SMN2-NSC34 cells
# Experimental: as §1
# JNK (pT183/pY185) = assay: Signaling pathway screen in SMN2-NSC34 cells; format: cell-based, mouse
# Stat2 (pY705) = assay: Signaling pathway screen in SMN2-NSC34 cells; format: cell-based, mouse
# Stat6 (pT641) = assay: Signaling pathway screen in SMN2-NSC34 cells; format: cell-based, mouse
# P38 (pT180/pY182) = assay: Signaling pathway screen in SMN2-NSC34 cells; format: cell-based, mouse
substance,measurement,setting,value
Sodium vanadate,Jak2 (pY1007/pY1008) cellular response,Jak2 (pY1007/pY1008),+ and ++
same,Jak2 activation,Jak2 (pY1007/pY1008),found activated
same,Stat5 (pT694) cellular response,Stat5 (pT694),++ and +++
same,Stat5 phosphorylation status at 8 hours,Stat5 (pT694),remained activated
same,phosphorylation level of Stat5 increased compared to control cells,Stat5 (pT694),about 6 fold
same,Stat3 (pY705) cellular response,Stat3 (pY705); 4 hrs,+
same,Stat3 (pY705) cellular response,Stat3 (pY705); 8 hrs,++
same,Stat1 (pY701) cellular response,Stat1 (pY701); 4 hrs,−
same,Stat1 (pY701) cellular response,Stat1 (pY701); 8 hrs,+/−
same,ERK1/2 (pT202/pY204) cellular response,ERK1/2 (pT202/pY204); 4 hrs,+
same,ERK1/2 (pT202/pY204) cellular response,ERK1/2 (pT202/pY204); 8 hrs,++
same,SMN2 splicing pattern MEF,SMN2,+++
same,influence on SMN2 expression,SMN2,found to influence SMN2 expression
same,Crk cellular response,Crk; 4 hrs,+/−
same,Crk cellular response,Crk; 8 hrs,+/−
same,MKP2 cellular response,MKP2; 4 hrs,−
same,MKP2 cellular response,MKP2; 8 hrs,−
same,GRB2 cellular response,GRB2; 4 hrs,+/−
same,GRB2 cellular response,GRB2; 8 hrs,+/−
same,Jak1 (pY1022/pY1023) cellular response,Jak1 (pY1022/pY1023); 4 hrs,+/−
same,Jak1 (pY1022/pY1023) cellular response,Jak1 (pY1022/pY1023); 8 hrs,+
same,PTP1C/SHP1 cellular response,PTP1C/SHP1; 4 hrs,+/−
same,PTP1C/SHP1 cellular response,PTP1C/SHP1; 8 hrs,−
same,SHC cellular response,SHC; 4 hrs,+/−
same,SHC cellular response,SHC; 8 hrs,+/−
same,NCK cellular response,NCK; 4 hrs,+/−
same,NCK cellular response,NCK; 8 hrs,+/−
same,PTP1B cellular response,PTP1B; 4 hrs,+/−
same,PTP1B cellular response,PTP1B; 8 hrs,−
same,GRB14 cellular response,GRB14; 4 hrs,+/−
same,GRB14 cellular response,GRB14; 8 hrs,+/−
same,KAP cellular response,KAP; 4 hrs,+/−
same,KAP cellular response,KAP; 8 hrs,−
same,PI3-Kinase cellular response,PI3-Kinase; 4 hrs,+/−
same,PI3-Kinase cellular response,PI3-Kinase; 8 hrs,+/−
same,RPTPβ cellular response,RPTPβ; 4 hrs,+/−
same,RPTPβ cellular response,RPTPβ; 8 hrs,+/−
same,LAR cellular response,LAR; 4 hrs,+/−
same,LAR cellular response,LAR; 8 hrs,+/−
same,RPTPα cellular response,RPTPα; 4 hrs,+/−
same,RPTPα cellular response,RPTPα; 8 hrs,−
same,ShcC cellular response,ShcC; 4 hrs,+/−
same,ShcC cellular response,ShcC; 8 hrs,+/−
same,JNK (pT183/pY185) cellular response,JNK (pT183/pY185); 4 hrs,+/−
same,JNK (pT183/pY185) cellular response,JNK (pT183/pY185); 8 hrs,+
same,Stat2 (pY705) cellular response,Stat2 (pY705); 4 hrs,+/−
same,Stat2 (pY705) cellular response,Stat2 (pY705); 8 hrs,+/−
same,Stat6 (pT641) cellular response,Stat6 (pT641); 4 hrs,−
same,Stat6 (pT641) cellular response,Stat6 (pT641); 8 hrs,−
same,P38 (pT180/pY182) cellular response,P38 (pT180/pY182); 4 hrs,+/−
same,P38 (pT180/pY182) cellular response,P38 (pT180/pY182); 8 hrs,+
